Measurements reported in ChEMBL document CHEMBL1148279, “Effects of bisphosphonates on the growth of Entamoeba histolytica and Plasmodium species in vitro and in vivo” (J Med Chem, 2004).

Experiments:
[1] = system: Plasmodium falciparum; assay: microbe, parasite or virus in culture
Description: In vitro growth inhibition against Plasmodium falciparum

[2] = system: Entamoeba histolytica; assay: In vitro growth inhibition against Entamoeba histolytica; type: functional, organism-based
[3] = in vitro; settings: human, KB cells (nasopharyngeal carcinoma)
Description: Toxicity evaluated against human nasopharyngeal carcinoma KB cell line

[4] = Therapeutic index was expressed as ratio of LD50 for KB cell line to IC50 against Entamoeba histolytica; type: cell-based; settings: human, KB cells; read-out: TI

Row | SMILES | IC50 [1] | IC50 [2] | CC50 [3] | selectivity ratio [4]
1 | O=P(O)(O)C(Nc1nccc2ccccc12)P(=O)(O)O | 50.4 µM | > 200 µM | 673 µM | –
2 | O=P(O)(O)C(Nc1ccccn1)P(=O)(O)O | > 200 µM | > 200 µM | 465 µM | –
3 | Cc1csc(NC(P(=O)(O)O)P(=O)(O)O)n1 | > 200 µM | > 200 µM | 150 µM | –
4 | O=P(O)(O)C(O)(CCc1cccnc1)P(=O)(O)O | – | > 200 µM | > 804 µM | –
5 | O=P(O)(O)C(CNc1ccncc1)P(=O)(O)O | > 200 µM | > 200 µM | 386 µM | –
6 | O=P(O)(O)C(CNc1ccccn1)P(=O)(O)O | 17 µM | > 200 µM | 144 µM | –
7 | CCCCCCCC(O)(P(=O)(O)O)P(=O)(O)O | 26.7 µM | 22.3 µM | 308 µM | –
8 | NCCCCC(O)(P(=O)(O)O)P(=O)(O)O | – | > 200 µM | 91 µM | –
9 | CC(C)(C)c1cc(NC(P(=O)(O)O)P(=O)(O)O)cc(C(C)(C)C)c1 | > 200 µM | 19.2 µM | 634 µM | 33
10 | O=P(O)(O)C(Nc1cccnc1)P(=O)(O)O | > 200 µM | 60 µM | 782 µM | 13
11 | O=P(O)(O)C(O)(Cc1c[nH]cn1)P(=O)(O)O | – | > 200 µM | 41 µM | –
12 | CCOP(=O)(OCC)C(Nc1ncccc1C)P(=O)(OCC)OCC | – | > 200 µM | > 790 µM | –
13 | O=P(O)(O)C(Nc1cccnc1Cl)P(=O)(O)O | > 200 µM | > 200 µM | > 963 µM | –
14 | O=P(O)(O)C(Nc1nc2ccccc2s1)P(=O)(O)O | > 200 µM | – | < 0.93 µM | –
15 | CCOP(=O)(OCC)C(Nc1cc(C)ccn1)P(=O)(OCC)OCC | > 200 µM | > 200 µM | 127 µM | –
16 | O=P(O)(O)CC(c1cccnc1)P(=O)(O)O (stereo not drawn) | > 200 µM | > 200 µM | 1020 µM | –
17 | Nc1ccc(CC(O)(P(=O)(O)O)P(=O)(O)O)cc1 | – | > 200 µM | – | –
18 | O=P(O)(O)C(Nc1ccc(I)cn1)P(=O)(O)O | > 200 µM | 39.5 µM | 466 µM | 11.8

Row | SMILES | IC50 [1] | IC50 [2] | CC50 [3] | selectivity ratio [4]
19 | CCn1c2ccccc2c2ccc(NC(P(=O)(O)O)P(=O)(O)O)cc21 | 104 µM | > 200 µM | 710 µM | –
20 | O=P(O)(O)C(NCCCc1ccccc1)P(=O)(O)O | > 200 µM | 15.6 µM | > 970 µM | > 62.2
21 | CCCCCCCc1ccc(NC(P(=O)(O)O)P(=O)(O)O)cc1 | – | 36.2 µM | 211 µM | –
22 | O=P(O)(O)C(O)(Cc1ccccn1)P(=O)(O)O | – | > 200 µM | – | –
23 | CCCCOc1ccc(NC(P(=O)(O)O)P(=O)(O)O)cc1 | > 200 µM | 3.98 µM | 210 µM | 52.7
24 | O=P(O)(O)C(N1CCCCC1)P(=O)(O)O | > 200 µM | > 200 µM | > 1090 µM | –
25 | O=C(O)c1cn(C2CC2)c2cc(N3CCN(CC(P(=O)(O)O)P(=O)(O)O)CC3)c(F)cc2c1=O | > 200 µM | > 200 µM | > 568 µM | –
26 | Cc1cc(C)nc(NC(P(=O)(O)O)P(=O)(O)O)c1 | > 200 µM | 177 µM | 633 µM | 3.58
27 | O=P(O)(O)C(Nc1ncccc1OCc1ccccc1)P(=O)(O)O | > 200 µM | > 200 µM | > 764 µM | –
28 | CCCC(O)(P(=O)(O)O)P(=O)(O)O | – | > 200 µM | > 967 µM | –
29 | O=P(O)(O)CC(c1ccncc1)P(=O)(O)O (stereo not drawn) | > 200 µM | > 200 µM | > 1120 µM | –
30 | O=P(O)(O)CC(c1ccccn1)P(=O)(O)O (stereo not drawn) | > 200 µM | > 200 µM | < 1.1 µM | –
31 | O=P(O)(O)C(Nc1ccc(Cl)cn1)P(=O)(O)O | 10.6 µM | 87 µM | > 991 µM | –
32 | CCc1cccc(NC(P(=O)(O)O)P(=O)(O)O)c1 | > 200 µM | > 200 µM | > 1020 µM | –
33 | Cc1cccnc1NC(P(=O)(O)O)P(=O)(O)O | – | > 200 µM | – | –
34 | CC(N)CC(O)(P(=O)(O)O)P(=O)(O)O (stereo not drawn) | – | > 200 µM | > 977 µM | –
35 | O=P(O)(O)C(O)(CCNCCCCc1ccccc1)P(=O)(O)O | > 200 µM | 20.5 µM | > 727 µM | > 35.5
